Assay results from patent US11273168B2, “Methods of treating anxiety by administering a substituted quinolone” (OTSUKA PHARMACEUTICAL CO., LTD., priority 2010, dated 2022).
Where a name gives a salt, the structure may show the parent alone. Read-outs that look alike come from different tables or passages of the source.

Tests used:
Assay type in all cases: biochemical
[1] = target: T1, Serotonin (5-HT) uptake (Rattus norvegicus, UniProt P31652); experiment: Serotonin (5-HT) uptake inhibitory activity using rat brain synaptosome (frontal cortex); conditions: tritium-labeled 5-HT 8 nM, 37° C. 10 minutes
T1 construct: The suspension was used as a crude synaptosome fraction; from tissue; host or cells: rat (male Wistar) frontal cortex, crude synaptosome fraction
Experimental: Measurement of Serotonin (5-HT) Uptake Inhibitory Activity of Test Compound Using Rat Brain Synaptosome
(§1) Male Wistar rats were decapitated, and their brains were removed and dissected to remove the frontal cortex. The separated frontal cortex was placed in a 20-fold weight of a 0.32 molarity (M) sucrose solution and homogenized with a potter homogenizer. The homogenate was centrifuged at 1000 g at 4° C. for 10 minutes, and the supernatant was further centrifuged at 20000 g at 4° C. for 20 minutes. […] The suspension was used as a crude synaptosome fraction.
(§2) Uptake reaction was performed using each well of a 96-well round-bottom plate and a 200 μl volume in total of a solution containing pargyline (final concentration: 10 μM) and ascorbic acid (final concentration: 0.2 mg/ml).
(§3) Specifically, a solvent, unlabeled 5-HT, and serially diluted test compounds were separately added to the wells, and the synaptosome fraction was added in an amount 1/10 of the final volume to each well and preincubated at 37° C. for 10 minutes. Then, a tritium-labeled 5-HT solution (final concentration: 8 nM) was added thereto to initiate uptake reaction at 37° C. 10 minutes later, the uptake reaction was terminated by suction filtration through a 96-well glass fiber filter plate. Furthermore, the filter was washed with a cold saline and then sufficiently dried. MicroScint-O (PerkinElmer Co., Ltd.) was added thereto, and the residual radioactivity on the filter was measured.
(§4) An uptake value obtained by the addition of only the solvent was defined as 100%, and an uptake value (nonspecific uptake value) obtained by the addition of the unlabeled 5-HT (final concentration: 10 μM) was defined as 0%. A 50%, inhibitory concentration was calculated from the test compound concentrations and inhibitory activities thereat.

[2] = target: Norepinephrine (NE) uptake (Rattus norvegicus, UniProt Q9WTR4); experiment: Norepinephrine (NE) uptake inhibitory activity using rat brain synaptosome (hippocampus)
Experimental: Measurement of Norepinephrine (NE) Uptake Inhibitory Activity of Test Compound Using Rat Brain Synaptosome
Male Wistar rats were decapitated, and their brains were removed and dissected to remove the hippocampus. The separated hippocampus was placed in a 20-fold weight of a 0.32 molarity (M) sucrose solution and homogenized with a potter homogenizer. The homogenate was centrifuged at 1000 g at 4° C. for 10 minutes, and the supernatant was further centrifuged at 20000 g at 4° C. for 20 minutes. The pellet was suspended in an incubation buffer (20 mM HEPES buffer (pH 7.4) containing 10 mM glucose, 145 mM sodium chloride, 4.5 mM potassium chloride, 1.2 mM magnesium chloride, and 1.5 mM calcium chloride). The suspension was used as a crude synaptosome fraction.
as §2
as §3, with “unlabeled NE,” for “unlabeled 5-HT,”, “tritium-labeled NE” for “tritium-labeled 5-HT”, “concentration: 12” for “concentration: 8”, “C. Ten” for “C. 10”
as §4, with “NE” for “5-HT”, “50%” for “50%,”

[3] = target: T2, Dopamine (DA) uptake (Rattus norvegicus, UniProt P23977); experiment: Dopamine (DA) uptake inhibitory activity using rat brain synaptosome (corpus striatum); conditions: tritium-labeled DA 2 nM, 37° C. ten minutes, read-out: 50% Inhibitory concentration
T2 construct: The suspension was used as a crude synaptosome fraction; from tissue; host or cells: rat (male Wistar) corpus striatum, crude synaptosome fraction
Experimental: Measurement of Dopamine (DA) Uptake Inhibitory Activity of Test Compound Using Rat Brain Synaptosome
as §1, with “corpus striatum.” for “frontal cortex.”, “corpus striatum” for “frontal cortex”
Uptake reaction was performed using each well of a 96-well round-bottom plate and a 200 μl volume in total of a solution containing pargyline (final concentration: 10 μM) and ascorbic acid (final concentration: 0.2 mg/mil).
as §3, with “unlabeled DA,” for “unlabeled 5-HT,”, “tritium-labeled DA” for “tritium-labeled 5-HT”, “concentration: 2” for “concentration: 8”, “C. Ten” for “C. 10”
as §4, with “DA” for “5-HT”, “50%” for “50%,”

[4] = read-out: 50% Inhibitory concentration
[5] = tritium-labeled NE 12 nM, 37° C. ten minutes, read-out: 50% inhibitory concentration

T2 sequence (P23977 whole entry): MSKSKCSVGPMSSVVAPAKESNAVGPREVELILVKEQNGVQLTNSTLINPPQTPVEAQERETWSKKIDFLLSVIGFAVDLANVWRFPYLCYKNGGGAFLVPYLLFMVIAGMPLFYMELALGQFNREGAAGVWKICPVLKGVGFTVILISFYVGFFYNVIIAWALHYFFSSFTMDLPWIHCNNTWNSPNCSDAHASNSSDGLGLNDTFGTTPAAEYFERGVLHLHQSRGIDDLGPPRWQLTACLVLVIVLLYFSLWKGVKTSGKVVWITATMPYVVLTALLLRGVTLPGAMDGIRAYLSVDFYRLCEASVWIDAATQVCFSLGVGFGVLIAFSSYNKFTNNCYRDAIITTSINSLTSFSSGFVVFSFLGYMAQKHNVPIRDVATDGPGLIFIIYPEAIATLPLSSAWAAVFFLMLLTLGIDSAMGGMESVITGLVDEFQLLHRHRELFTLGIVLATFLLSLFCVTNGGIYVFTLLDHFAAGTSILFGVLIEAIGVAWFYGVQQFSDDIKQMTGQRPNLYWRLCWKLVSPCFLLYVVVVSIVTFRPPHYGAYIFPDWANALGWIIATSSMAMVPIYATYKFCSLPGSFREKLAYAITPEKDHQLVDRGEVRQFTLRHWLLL
T1 sequence (P31652 whole entry): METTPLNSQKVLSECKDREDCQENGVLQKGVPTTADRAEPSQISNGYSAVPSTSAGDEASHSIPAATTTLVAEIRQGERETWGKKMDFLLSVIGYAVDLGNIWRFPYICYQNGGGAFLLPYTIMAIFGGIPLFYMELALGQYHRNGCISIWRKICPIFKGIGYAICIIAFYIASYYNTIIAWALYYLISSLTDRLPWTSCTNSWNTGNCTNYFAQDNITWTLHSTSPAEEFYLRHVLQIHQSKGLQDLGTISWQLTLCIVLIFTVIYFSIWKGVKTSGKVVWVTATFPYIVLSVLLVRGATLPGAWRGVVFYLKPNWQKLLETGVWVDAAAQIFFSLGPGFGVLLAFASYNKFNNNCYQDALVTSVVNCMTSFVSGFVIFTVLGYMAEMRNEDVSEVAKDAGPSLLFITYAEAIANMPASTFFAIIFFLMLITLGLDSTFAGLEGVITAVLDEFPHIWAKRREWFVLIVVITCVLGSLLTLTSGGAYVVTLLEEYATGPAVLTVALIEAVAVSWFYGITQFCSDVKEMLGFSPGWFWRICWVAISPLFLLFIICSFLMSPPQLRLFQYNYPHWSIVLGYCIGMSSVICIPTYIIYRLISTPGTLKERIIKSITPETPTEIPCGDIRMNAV

Compound	IC50 [1, 4] [nM]	IC50 [2, 5] [nM]	IC50 [3] [nM]	IC50 ([1]; 50% Inhibitory concentration) [nM]	IC50 ([2]; read-out: 50% inhibitory concentration, tritium-labeled NE 12 nM, 37° C. ten minutes) [nM]
CN1[C@H]2CCCC[C@@H]2N(c2ccc3sccc3c2)CC1(C)C [Example 187]	5.8	6	12.1	–	–
CC1(C)CN(c2ccc3ccsc3c2)[C@H]2CCCC[C@@H]2N1 [Example 188]	6	0.8	7.9	–	–
CC1(C)CN(c2cccc3occc23)[C@H]2CCCC[C@@H]2N1 [Example 191]	3.2	2.1	13.5	–	–
CC1(C)CN(c2ccc(F)c3occc23)[C@H]2CCCC[C@@H]2N1 [Example 192]	2.9	3.6	8.6	–	–
CC1(C)CN(c2ccc(Cl)c3occc23)[C@H]2CCCC[C@@H]2N1 [Example 193]	3.4	4.4	5.7	–	–
CC1(C)CN(c2ccc3occc3c2)[C@H]2CCCC[C@@H]2N1 [Example 196]	4.4	1.7	18.3	–	–
COc1c(F)cc(N2CC(C)(C)N[C@H]3CCCC[C@@H]32)cc1F [Example 233]	7.4	3.7	38.8	–	–
CC1(C)CN(c2ccc(Cl)c(Cl)c2)[C@H]2CCCC[C@@H]2N1 [Example 246]	6.8	3.8	8.8	–	–
CN1[C@H]2CCCC[C@@H]2N(c2ccc(Cl)c(Cl)c2)CC1(C)C [Example 247]	42.8	6.6	8.7	–	–
CN1[C@@H]2CCCC[C@H]2N(c2ccc(Cl)c(Cl)c2)CC1(C)C [Example 273]	44	6.8	8.7	–	–
Clc1ccc(N2CC3(CCC3)N[C@H]3CCCC[C@H]32)cc1 [Example 276]	7.2	4.5	10.9	–	–
Cc1c(Cl)cccc1N1CC(C)(C)N[C@H]2CCCC[C@H]21 [Example 468]	3.8	7.5	54	–	–
CC1(C)CN(c2csc3ccccc23)[C@@H]2CCCC[C@@H]2N1 [Example 577]	5.2	5.9	47.9	–	–
COc1ccc(N2CC3(CCC3)N[C@H]3CCCC[C@H]32)c2ccoc12 [Example 579, (4a′R,8a′S)-4′-(7-methoxybenzofuran-4-yl)octahydro-1′H-spiro[cyclobutane-1,2′-quinoxaline]]	4.5	5.1	46.5	–	–
CC1(C)CN(c2cc(F)c(F)c3occc23)[C@@H]2CCCC[C@@H]2N1 [Example 580, (4aS,8aR)-1-(6,7-difluorobenzofuran-4-yl)-3,3-dimethyldecahydroquinoxaline hydrochloride]	2.5	5.4	202	–	–
CC1(C)CN(c2ccc3[nH]c(C#N)cc3c2)[C@H]2CCCC[C@@H]2N1 [Example 582, (4aS,8aS)-1-(2-cyano-1H-indol-5-yl) 3,3-dimethyldecahydroquinoxaline]	4.1	6	68.8	–	–
CC1(C)CN(c2ccnc3[nH]ccc23)[C@H]2CCCC[C@@H]2N1 [Example 586, (4aS,8aS)-3,3-dimethyl-1-(1H-pyrrolo[2,3-b]pyridin-4-yl)decahydroquinoxaline fumarate]	5.2	4	93	–	–
CC1(C)CN(c2ccc(OC(F)F)c(F)c2)[C@H]2CCCC[C@@H]2N1 [Example 587, (4aS,8aS)-1-(4-(difluoromethoxy)-3-fluorophenyl)-3,3-dimethyldecahydroquinoxaline dihydrochloride]	0.9	1.9	76.1	–	–
COc1cc2ccc(N3CC(C)(C)N[C@H]4CCCC[C@H]43)cc2cc1C#N [Example 610]	4.6	5.9	13.2	–	–
CC1(C)CN(c2cc(F)cc3ccsc23)[C@@H]2CCCC[C@@H]2N1 [Example 621]	–	–	128	7	0.7
CC1(C)CN(c2ccc3cc(C#N)oc3c2)[C@@H]2CCCC[C@@H]2N1 [Example 641]	2.2	76	9.7	–	–
